The record followed here is patent publication US20150051210A1, “Tyrosine Kinase Inhibitor Combinations and their Use” (Novartis AG, priority 2012, published 2015).

Holding throughout (format): cell-based
Assay [1] has as its system phosphorylation of MET, FRS2, ERK, AKT in RT-112. The assay can be described thus: Western blots of protein phosphorylation in RT-112 cells. As to the method:
(§1) Western Blots (Figures not Shown) MKN-45 and RT-112 cells were treated in 6-well plates for 2 hours and 18 hours in the presence or absence of purified protein (rhFGF7, rhNRG1-31, or rhHGF), and/or inhibitor (Cpd. B, Cpd. A, BGJ398). Following wash with ice-cold PBS, cells were lysed with RIPA buffer (Thermo) containing phosphatase (Thermo) and proteinase (Roche) inhibitor cocktails. Total protein was quantified by bicinchoninic protein assay (Pierce). Aliquots of 20 μg were resolved by electrophoresis on NuPAGE SDS-PAGE 4-12% BIS-Tris gels before transfer to nitrocellulose membranes. Membranes were blocked for one hour at room temperature before overnight incubation at 4° C. with the following primary antibodies (source rabbit, 1:1000 final dilution): anti-phospho-Akt (Ser473), anti-phospho-MET (Tyr1234/1235), anti-phospho-MAPK/ERK(1/2) (Thr202/Tyr204), anti-AKT, anti-MAPK/Erk(1/2), and anti-α/β-Tubulin . Anti-MET was probed at 1:800 final dilution An internal antibody was used for phospho-FRS2(Y346) (1:1500 dilution). Membranes were then washed 3 times in PBS+0.1% Tween before addition of secondary antibody, IRDye 680LT goat anti-rabbit IgG , dilution 1:15000. After one hour at room temperature, membranes were washed and bands were visualized using an Odyssey Infrared Imager.

The subject of assay [2] is RT-112 cells. The assay can be described thus: RT-112 Dual Inhibition: reversal of rescue with selective inhibitors, CellTiter-Glo cell viability. The following applies: for activity on cell viability (reversal of rescue): RT-112, rhHGF or rhNRG-1 250 ng/ml, 96 h, BGJ398 100 nM, Cpd. A/Cpd. B 500 nM, Lapatinib 1.5 μM, FIG. 5, FIG. 6. Here is the method: RT-112 Secretome screen: The basic format was identical to the MKN-45 secretome screen with slight modifications. RT-112 cells were plated in EMEM+10% in white, tissue-culture treated 384-well plates at 1000 cells/20 μl/well and allowed to attach overnight. Supernatant from library-transfected HEK293T/17 cells was transferred as described above for the MKN-45 secretome screen. Purified proteins rhNRG1-31 and rhTGFα were added as positive controls, at a final concentration of 150 ng/ml. Following addition of supernatants and purified protein controls, BGJ398 diluted in DMEM was added at 10 μl/well for a final assay concentration of 100 nM. Cell viability was measured after 72 hours using CellTiter-Glo as described above. (FIG. 2)
RT-112 Dual Inhibition: The format for the RT-112 dual inhibition experiment was similar to that described for MKN-45 with the following modifications. RT-112 cells were plated at 1000 cells/20 μl/well. Solutions of rhHGF and rhNRG-1 were added to achieve a final concentration of 250 ng/ml. Single and dual inhibition conditions were prepared as follows: BGJ398, Cpd. A, Cpd. B, Lapatinib, BGJ398 and Cpd. A, BGJ398 and Cpd. B, BGJ398 and Lapatinib. Final concentrations for each compound, whether single or combined, were as follows: 100nM for BGJ398, 500 nM for Cpd. A and Cpd. B, and 1.5 μM for Lapatinib. After 96 hours cell viability was measured by CellTiter-Glo as previously described. (FIG. 5, FIG. 6).

Assay [3] has as its system phosphorylation of MET, ERK1/2, AKT, FRS2 in MKN-45. Kind of assay: Western blots of protein phosphorylation in MKN-45 cells. As to the method: as §1
On the technique in general: Immunoblotting shows a protein as a band on a membrane.

Assay [4] deals with MKN-45 cells. The assay can be described thus: MKN-45 Dual Inhibition: reversal of rescue with selective inhibitors, CellTiter-Glo cell viability. The following applies: for activity on cell viability (reversal of rescue): MET-dependent MKN-45, rhFGF7 or rhNRG-1 250 ng/ml, 96 h, Cpd. A/Cpd. B 100 nM, BGJ398 500 nM, Lapatinib 1.5 μM, FIG. 3, FIG. 4. As to the method: MKN-45 Secretome screen: MKN-45 cells were plated in white, tissue-culture treated 384-well plates (Greiner) at 3000 cells/20 μl DMEM +10% FBS/well and allowed to attach overnight. Supernatant from library-transfected HEK293T/17 cells was then transferred to the MKN-45 cells at 30 μl/well using a Biomek FX liquid handler (Beckman Coulter) with pipetting speeds reduced to minimize disturbance of the HEK293T/17 monolayer. As positive controls, the purified proteins rhEGF and rhNRG1-31 (R&D Systems) were added to isolated wells on each plate for a final concentration of 150 ng/ml; supernatant from mock-transfected HEK293T/17 wells were transferred as neutral controls. Following addition of supernatants and purified protein controls, Cpd. A diluted in DMEM was added at 10 μl/well for a final assay concentration of 100 nM. After 96 hours incubation, growth was measured using the CellTiter-Glo luminescent cell viability assay system (Promega). In brief, 30 μl CellTiter-Glo reagent was added to all wells, then incubated for 15 minutes at room temperature before reading luminescence on a Viewlux plate reader (Perkin Elmer). (FIG. 1)
MKN-45 Dual Inhibition: MKN-45 cells were seeded at 3000 cells/20 μl/well in 384-well plates and incubated overnight. Solutions of rhFGF7 and rhNRG-1 were prepared in DMEM+10%FBS, then added at 30 μl/well to achieve a final concentration of 250 ng/ml (one purified protein per treatment). The following single and dual inhibition treatments were prepared in DMEM and added at […]: Cpd. A, Cpd. B, BGJ398, Lapatinib, Cpd. A and BGJ398, Cpd. B and BGJ398, Cpd. A and Lapatinib, Cpd. B and Lapatinib. Final concentrations for each compound, whether single or combined, were as follows: 100 nM for Cpd. A and Cpd. B, 500 nM for BGJ398 and 1.5 μM for Lapatinib. After 96 hours cell viability was measured by CellTiter-Glo as previously described. (FIG. 3, FIG. 4)
Background: In ATP-based viability assays light output follows the ATP content of the culture.

Take HGF: Hepatocyte Growth Factor: the “ERK phosphorylation after addition of ligand” value in assay [1] (RT-112, in the presence of BGJ398) is reported as “restored ERK phosphorylation”. In assay [2] (RT-112 in presence of FGFR inhibitor), the “rescue of cell proliferation by recombinant ligand” value was “reproduce the rescue effects”.

As to `C/C(=N\NC(N)=O)c1ccc2ncc(Cc3cc4cccnc4cc3F)n2n1` [Cpd. A, (E)-2-(1-(3-((7-fluoroquinolin-6-yl)methyl)imidazo[1,2-b]pyridazin-6-yl)ethylidene)hydrazinecarboxamide], the “effect on phosphorylation of several proteins (MET, ERK1/2, AKT, FRS2)” value in assay [3] (MKN-45, absence of added ligands) is “profound effect”. Further, in assay [1] (RT-112, BGJ398 plus HGF, simultaneous addition), the “prevention of HGF rescue of ERK phosphorylation” value is reported as “prevented this rescue effect”. Further, the MET phosphorylation entry in assay [1] (RT-112, absence of ligands) is reported as “specifically inhibited MET phosphorylation”. Moreover, the results for the “activity on cell viability (reversal of rescue)” value in assay [2] and in assay [4] were “not sufficient” and “active”, respectively.

As for `CS(=O)(=O)CCNCc1ccc(-c2ccc3ncnc(Nc4ccc(OCc5cccc(F)c5)c(Cl)c4)c3c2)o1` [lapatinib, reference compound], the “reversal of FGF7 rescue effect on FRS2 and ERK1/2 phosphorylation” value in assay [3] (MKN-45, MET inhibitor plus FGF7) was “not”. Besides, in assay [3] (MKN-45, MET inhibitor plus NRG1), the “sensitivity of NRG1-evoked phosphorylation re-activation to inhibitor” value was “specifically sensitive”. Further, the “sensitivity of NRG1-caused restoration of ERK phosphorylation to inhibitor” value in assay [1] (RT-112) was “lapatinib-sensitive”. Besides, the “activity on cell viability (reversal of rescue)” value in assay [2] and in assay [4] was “not sufficient” each time. For the same molecule, the “reversal of ligand-mediated rescue of proliferation” value in assay [4] (MKN-45 in presence of MET inhibitor Cpd. A or Cpd. B, FIGS. 3, 4) is on record as “reversed rescue by NRG1”.

B1: FGF7: Fibroblast Growth Factor 7 (activator of FGFR) (protein, UniProt P21781 32-194, looked up)
Fibroblast growth factor 7: CNDMTPEQMATNVNCSSPERHTRSYDYMEGGDIRVRRLFCRTQWYLRIDKRGKVKGTQEMKNNYNIMEIRTVAVGIVAIKGVESEFYLAMNKEGKLYAKKECNEDCNFKELILENHYNTYASAKWTHNGGEMFVALNQKGIPVRGKKTKKEQKTAHFLPMAIT
Turning to B1, in assay [3] (MKN-45, MET inhibited), the “AKT phosphorylation after addition of ligand” value was “no or minimal effect on AKT phosphorylation”, the “ERK1/2 phosphorylation after addition of ligand” value is on record as “partially re-activated ERK1/2 phosphorylation” and the “FRS2 phosphorylation after addition of ligand” value is “re-activated FRS2 phosphorylation”.
